Molecular target: T1, Bifunctional epoxide hydrolase 2 (Homo sapiens, UniProt P34913)
T1 sequence (P34913 whole entry): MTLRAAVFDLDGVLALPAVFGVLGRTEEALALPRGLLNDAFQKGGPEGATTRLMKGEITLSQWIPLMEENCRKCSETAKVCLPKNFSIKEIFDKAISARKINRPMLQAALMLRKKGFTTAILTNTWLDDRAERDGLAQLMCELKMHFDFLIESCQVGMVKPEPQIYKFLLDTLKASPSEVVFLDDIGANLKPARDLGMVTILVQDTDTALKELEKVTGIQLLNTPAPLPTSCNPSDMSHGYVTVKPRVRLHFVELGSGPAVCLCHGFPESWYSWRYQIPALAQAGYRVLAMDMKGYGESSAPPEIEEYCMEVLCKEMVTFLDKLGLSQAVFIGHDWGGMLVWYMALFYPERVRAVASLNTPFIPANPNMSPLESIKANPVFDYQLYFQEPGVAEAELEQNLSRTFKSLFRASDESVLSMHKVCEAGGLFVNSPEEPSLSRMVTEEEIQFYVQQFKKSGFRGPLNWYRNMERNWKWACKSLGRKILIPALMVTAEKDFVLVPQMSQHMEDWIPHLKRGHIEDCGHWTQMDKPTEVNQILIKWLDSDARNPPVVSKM
Assay: Inhibition of soluble epoxide hydrolase (unknown origin) using NEPC as substrate after 1 hr by fluorescence assay

IC50 | Structure (SMILES)
0.3 µM | Cc1ccc2c(O[C@@H]3O[C@H](CO)[C@@H](O)[C@H](O)[C@H]3O)c3ccccc3c(O[C@@H]3O[C@H](CO)[C@@H](O)[C@H](O)[C@H]3O)c2c1
1.1 µM | CC1=CC[C@@H]2C(=C(O)c3ccccc3[C@@H]2O)C1=O

Source: ChEMBL document CHEMBL4266023, “NMR-Based Investigation of Hydrogen Bonding in a Dihydroanthracen-1(4 H)one from Rubia philippinensis and Its Soluble Epoxide Hydrolase Inhibitory Potential” (J Nat Prod, 2018)
